Experimental data reported in ChEMBL document CHEMBL4007494, “Structural Basis of Small-Molecule Aggregate Induced Inhibition of a Protein-Protein Interaction” (J Med Chem, 2017).
Active and inactive are the calls of the source. The calls are words filed in the database; no cut-off is given here.

How the values were obtained:
[1] = Critical aggregation concentration assessed as formation of aggregate after 30 mins by light scattering method
[2] = Critical aggregation concentration assessed as formation of aggregate after 30 mins in presence of triton X-100 by light scattering method
[3] = target: T1, Tumor necrosis factor (Homo sapiens, UniProt P01375); settings: 50 uM
Description: Binding affinity to human TNF-alpha soluble domain assessed as sedimentation velocity constant s20,w at 50 uM after 3 hrs by ultracentrifugation method

[4] = target: T1, Tumor necrosis factor; test: Binding affinity to human TNF-alpha soluble domain assessed as decrease in complex formation with human TNFR1 extracellular domain preincubated for 1 hr followed by receptor addition measure after 2 hrs by TR-FRET assay
[5] = target: T1, Tumor necrosis factor; test: Binding affinity to human TNF-alpha soluble domain assessed as decrease in complex formation with human TNFR2 extracellular domain preincubated for 1 hr followed by receptor addition measure after 2 hrs by TR-FRET assay

T1 sequence (P01375 whole entry, the tested form may be a part): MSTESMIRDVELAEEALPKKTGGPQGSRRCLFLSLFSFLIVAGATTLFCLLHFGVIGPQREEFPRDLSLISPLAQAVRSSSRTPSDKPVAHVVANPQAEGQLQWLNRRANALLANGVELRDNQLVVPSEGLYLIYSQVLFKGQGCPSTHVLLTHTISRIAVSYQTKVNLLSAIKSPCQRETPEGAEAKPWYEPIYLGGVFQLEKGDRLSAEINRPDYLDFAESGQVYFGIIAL

SMILES	CAC [1]	CAC [2]	S20,w [3]	IC50 [4] [nM]	IC50 [5] [nM]
Cc1cc2occ(CN(C)CCN(C)Cc3cn(-c4cccc(C(F)(F)F)c4)c4ccccc34)c(=O)c2cc1C	10 µM				
Clc1ccc(COC(Cn2ccnc2)c2ccc(Cl)cc2Cl)c(Cl)c1 (stereo not drawn)	Dose-dependent effect	inactive			
Nc1nccc(N(Cc2ccccc2)c2ccccc2-c2cccc(-c3cnc(N4CCNCC4)nc3)c2)n1	1 µM	inactive	3.09	1200	1100
